Experimental data reported in patent US12129255B2, “Pyrido [2,3-d]pyrimidine derivatives as inhibitors of human immunodeficiency virus replication” (VIIV HEALTHCARE UK (No. 5) LIMITED, priority 2019, dated 2024).
Read-outs that look alike come from different tables or passages of the source.

Columns and labels:
[1] = test system: recombinant NL4-3 virus; assay: Antiviral activity toward recombinant NL4-3 Renilla luciferase virus in MT-2 cells; type: cell-based, HIV
Description: MT-2 cells, 293T cells and the proviral DNA clone of NL4-3 virus were obtained from the NIH AIDS Research and Reference Reagent Program. MT-2 cells were propagated in RPMI 1640 media supplemented with 10% heat inactivated fetal bovine serum (FBS), […]. The 293T cells were propagated in DMEM media supplemented with 10% heat inactivated FBS, […]. A recombinant NL4-3 proviral clone, in which a section of the nef gene was replaced with the Renilla luciferase gene, was used to make the reference virus used in these studies. The recombinant virus was prepared through transfection of the recombinant NL4-3 proviral clone into 293T cells using Transit-293 Transfection Reagent from Mirus Bio LLC (Madison, WI). Supernatant was harvested after 2-3 days and the amount of virus present was titered in MT-2 cells using luciferase enzyme activity as a marker by measuring luciferase enzyme activity. Luciferase was quantitated using the EnduRen Live Cell Substrate from Promega (Madison, WI). Antiviral activities of compounds toward the recombinant virus were quantified by measuring luciferase activity in MT-2 cells infected for 4-5 days with the recombinant virus in the presence of serial dilutions of the compound. […]

[2] = Cytotoxicity in uninfected MT2 cells, XTT colorimetric assay; type: cell-based; conditions: human, day 4, XTT
Description: Compound cytotoxicity and the corresponding CC50 values were determined using the same protocol as described in the antiviral assay except that uninfected cells were used. Cytotoxicity was assessed on day 4 in uninfected MT2 cells by using an XTT (2,3-bis[2-Methoxy-4-nitro-5-sulfophenyl]-2H-tetrazolium-5-carboxyanilide inner salt)-based colorimetric assay (Sigma-Aldrich, St Louis, Mo).

[3] = Metabolism in liver microsomes (human); type: in vitro ADME; conditions: pH 7.4, 1 μM compound, 1 mg/mL microsomes, NADPH, read-out: Human liver microsome T1/2
Description: (§1) Liver microsomes from human, rat dog and monkey were thawed and diluted to a final concentration of 1 mg/mL in 100 mM potassium phosphate buffer (pH 7.4). Test compounds and controls were prepared at 100× final concentration of 1 μM in 1:1 acetonitrile:water (v/v) and aliquoted into microsomal mixture. The mixture was preincubated at 37° C. in a shaking water bath for 10 minutes. The incubations were performed in duplicate. Three controls were included in the incubations; warfarin, phenacetin, and verapamil. After the preincubation, the reaction was initiated with NADPH at a final concentration of 1 mM. At 0, 5, 15, 30, 45 and 60 minutes, 25 μL of sample was removed and quenched with 300 μL of acetonitrile containing internal standard (Telmisartan). The samples were vortexed for 5 minutes at 1200 rpm and then centrifuged at 4000 rpm for 10 min. A 100 μL aliquot of supernatant was diluted three-fold with water and injected on an Exion LC 4500 Triple Quad LC-MS/MS system. Results were reported as a percentage of parent remaining and was calculated from peak area ratios of test compound remaining after at each time point and compared to time zero incubation.

[4] = Metabolism in liver microsomes (monkey); type: in vitro ADME
Description: as §1

[5] = Metabolism in human hepatocytes; type: in vitro ADME
Description: Cryopreserved hepatocytes in suspension from human, monkey, dog, rat and mouse were thawed and diluted in pre-warmed William's Medium E (pH 7.4). Aliquots of the hepatocyte suspension were added to test compound working solutions prepared in pre-warmed William's Medium E (pH 7.4) to achieve final concentrations of 0.5 μM in 0.5×10^6 cells per milliliter and ≤0.25% DMSO. These samples were incubated at 37° C. with 5% carbon dioxide and shaking at 200 rpm. The incubations were performed in singlet. […] Following completion of the experiment, samples were analyzed by LC-MS/MS. […] This percentage is calculated by dividing the peak area ratio of test compound following incubation (tx) by the peak area ratio of test compound at time-zero (t0) just prior to incubation. • The elimination rate constant (k, min^−1) is calculated using nonlinear regression fitting with the following equation: Ct=C0×e^(−k×t) • where: • C0 is the initial concentration represented as the peak area ratio (test compound peak area/internal standard peak area); • Ct is the concentration at t represented as the area ratio (test compound peak area/internal standard peak area); • e is the base of the natural logarithm • t is the time (min); • k is the elimination rate constant (min^−1). • The half-life (t1/2, min) is calculated using the following equation: […]

[6] = Allometric scaling of pre-clinical PK parameters to predict dose in human
Description: Human dose predictions were performed using Phoenix WinNonlin (v 8.0) software and Microsoft Excel using the ModelRisk add-in for population modeling. Human estimates for each compound's CLTp were obtained based on average allometric scaling of mouse, rat, monkey and dog IV data (body weight scaling factor of 0.75) and an average (body weight scaling factor of 1.0) from all species for VSS. Human IV parameters (Vc, Ka, K12, K21, Kel) were determined using Mean Residence Time (MRT) scaling from preclinical species (mouse, rat, dog and cyno) using the human VSS and CLTp estimates. Absorption (Ka) was determined by deconvolution (PO) or from the half-life (SC) in preclinical species (Ka=LN(2)/t1/2). The predicted human dose for PO and SC is calculated with consideration of human variability and is calculated to cover 95% of the human population.

With `Cn1nc(NS(C)(=O)=O)c2c(Cl)ccc(-n3c([C@H](Cc4cc(F)cc(F)c4)NC(=O)Cn4nc(C(F)F)c5c4C(F)(F)[C@@H]4C[C@H]54)nc4nc(OCCC(F)(F)F)ccc4c3=O)c21` (atropisomer, axis not shown; (P)) [Example 1, N—((S)-1-((3P)-3-(4-chloro-1-methyl-3-(methylsulfonamido)-1H-indazol-7-yl)-4-oxo-7-(3,3,3-trifluoropropoxy)-3,4-dihydropyrido[2,3-d]pyrimidin-2-yl)-2-(3,5-difluorophenyl)ethyl)-2-((3bS,4aR)-3-(difluoromethyl)-5,5-difluoro-3b,4,4a,5-tetrahydro-1H-cyclopropa[3,4]cyclopenta[1,2-c]pyrazol-1-yl)acetamide] the EC50 ([1]; Human immunodeficiency virus 1, NL43, MT2, read-out: EC50 (anti-HIV virology assay, revised average)) was 0.025 ± 0.008 nM, the EC50 ([1]; Human immunodeficiency virus 1, NL43, MT2, read-out: EC50 when initially tested) was 0.034 nM and the CC50 at 4 days [2] was over 500 nM. The half-life at 1 μM [3] was over 2 h, the “stability in monkey liver microsomes relative to Example 60.2” value ([4]; Example 1 versus Example 60.2) was “at least two times more stable” and the half-life at 1 μM ([4]; monkey, liver microsomes, pH 7.4, 1 μM compound, 1 mg/mL microsomes, NADPH, read-out: Monkey liver microsome T1/2) was over 2 h. For the same compound, the “intrinsic clearance in human hepatocytes” value ([5]; 0.5 μM, 0.5×10^6 cells per milliliter) was 0.312 mL/min/g liver, the half-life at 0.5 μM ([5]; human, cryopreserved hepatocytes in suspension, pH 7.4, 0.5×10^6 cells per milliliter) was over 8 h and the “predicted human QD PO dose” value ([6]; once-daily oral, allometric scaling, to cover 95% of the human population) was “less than 10 mg”. For the same compound, the “predicted Q1M SC dose in human lower than for Example 60.2” value ([6]; once-monthly subcutaneous, from SC rat PK and predicted human clearance) was 15 fold and the “predicted once-daily oral dose in human lower than for Example 60.2” value ([6]; to maintain efficacious plasma concentration) was 7 fold.
